Tests used:
[1] = Decomposition of CRBN-based PROTACs in DMEM media or water (LCMS); assay type: physicochemical; settings: 10 μM, within 3 h, DMEM cell media or water, room temperature
Excerpt: With the desired SHP2 ligand in hand, we synthesized an initial set of PROTAC molecules using pomalidomide or lenalidomide as a ligand of the E3 ligase Cereblon (CRBN), which is one of the most productive E3 in the development of PROTACs. […] This observation is consistent with the fact that phthalimides can be smoothly hydrolyzed in the presence of water and an organic base, as these PROTAC compounds contain a basic aliphatic amino group. Given that this free amino group in the allosteric inhibitors is essential for the binding affinity to SHP2 [28], we reasoned that pomalidomide or lenalidomide-based CRBN ligands are not suitable for the development of in vivo efficacious SHP2 degraders in this study due to stability considerations.
Scheme S1. Decomposition of CRBN-based PROTACs in the presence of water. 10 μM compound 11 or
12 was incubated in DMEM media or water for 3 hours. The fina l co ncentrations of the compounds at
the endpoint were quantified by LCMS.
Table S1. Enzymatic IC50s of first generation SHP2 PROTACs against full length SHP2
Compound ID Linker Structure Linker Length (atom) SHP2 IC50 (n M) […]

full-length SHP2 (1-528) = target: T1, full-length SHP2 (1-528) (Homo sapiens, UniProt Q06124); assay: SHP2 allosteric inhibition assay (DiFMUP substrate); assay type: biochemical; settings: full length SHP2, enzymatic assay
T1 construct: The SHP2 protein (Aa 1–528) was cloned into a pET-21a(+) vector; His; made in house; host or cells: E. coli BL21(DE3)
T1 sequence (Q06124 1-528): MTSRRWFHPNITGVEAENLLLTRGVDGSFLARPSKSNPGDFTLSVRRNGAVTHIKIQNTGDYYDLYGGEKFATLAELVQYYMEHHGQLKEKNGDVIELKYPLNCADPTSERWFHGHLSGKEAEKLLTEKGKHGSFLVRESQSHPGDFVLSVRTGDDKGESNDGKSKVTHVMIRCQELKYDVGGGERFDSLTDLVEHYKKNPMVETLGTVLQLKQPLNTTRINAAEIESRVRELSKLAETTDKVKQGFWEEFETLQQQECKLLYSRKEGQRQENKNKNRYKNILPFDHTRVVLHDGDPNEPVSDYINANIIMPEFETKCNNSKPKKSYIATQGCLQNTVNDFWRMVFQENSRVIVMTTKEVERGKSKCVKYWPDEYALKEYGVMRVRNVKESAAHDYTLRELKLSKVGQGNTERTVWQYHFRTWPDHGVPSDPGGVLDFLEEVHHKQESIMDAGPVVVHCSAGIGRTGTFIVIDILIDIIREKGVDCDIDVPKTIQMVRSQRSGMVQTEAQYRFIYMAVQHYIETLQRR
Procedure: The SHP2 protein (Aa 1–528) was cloned into a pET-21a(+) vector. Bacterial BL21(DE3) (Novagen) was used as an expression host, and the induction of protein expression was carried out in LB media with 1 mM IPTG at 18 °C overnight. Cell pellets were stored at −80 °C for subsequent protein purification. Protein purification was conducted at 4 °C. Frozen cell pellets were lysed by sonication in 40 mL cold lysis buffer (50 mM Tris-HCl, pH 8.0, 150 mM NaCl, 5 mM imidazole, and 1 mM PMSF) per liter cell pellet. Cell lysates were clarified by centrifuging for 15 min at 6000 rpm. The supernatant was incubated with HisPur Ni-NTA resin (Thermo Scientific, Waltham, MA, USA) for 2 h, and then packed onto a column and washed with 50 resin volume of buffer A (50 mM Tris-HCl, pH 8.0, 500 mM NaCl, 5 mM imidazole). The HIS-tagged proteins were eluted with Buffer B (50 mM Tris-HCl, pH = 8.0, 500 mM NaCl, 300 mM imidazole,). Pooled HIS-protein-containing fractions were concentrated, loaded onto a HiLoad 26/600 Superdex 75 column (GE Healthcare Biosciences, Piscataway, NJ, USA), and eluted with storage buffer (50 mM Tris-HCl, pH 8.0, 150 mM NaCl, 1 mM DTT, 10% glycerol). Proteins used for inhibition assays were purified using Ni-NTA resin (Qiagen, Hilden, Germany) followed by size exclusion column chromatography (ÄKTA pure, Cytiva, Marlborough, MA, USA) and the purity was determined to be >95% by SDS-PAGE and Coomassie staining. The protein was aliquoted and stored at −80 °C.
The catalytic activity of SHP2 (1-528) was assayed with 6,8-Difluoro-4-Methylumbelliferyl Phosphate (DiFMUP, Invitrogen, cat# D6567) as a substrate in 3,3-Dimethylglutaric acid (DMG) buffer (50 mM DMG, pH 7.0, 1 mM EDTA, 18 mM NaCl, 0.01% Triton X-100) at 25 °C. To determine the IC50 values, the assays were performed in 96-well plates (Corning Costar 3915). Series diluted compounds were incubated with 0.5 nM of SHP2 and 0.5 μM of peptide IRS1_pY1172(dPEG8)pY1222 (sequence H2N-LN(pY)IDLDLV(dPEG8)LST(pY)ASINFQK-amide). After 30 min incubation at room temperature, the substrate DiFMUP was added to the reaction (200 μM final concentration, total reaction volume is […]) and incubated at 25 °C for 10 min. The reaction was then quenched by adding 40 μL of 160 μM bpV(Phen) (Sigma–Aldrich, cat# SML0889) solution. The fluorescence signal was monitored with a CLARIOstar Plus Microplate Spectrophotometer (BMG Labtech) using excitation and emission wavelengths of 340 and 450 nm, respectively. The inhibitordose-response curves were analyzed using normalized IC50 regression curve fitting with control-based normalization. Data were fitted using Prism GraphPad 9.2.0.

SHP2 = target: T2, SHP2 (Homo sapiens, UniProt Q06124); assay: SHP2 degradation by Western blotting in HEK293 cells; assay type: cell-based; design: endogenous in cells; host or cells: HEK293; settings: HEK293 cells; for SHP2 degradation (in words): 1 and 10 µM; for Degradation at 1 μM / Degradation at 10 μM: 16 h treatment
T2 sequence (Q06124 1-593): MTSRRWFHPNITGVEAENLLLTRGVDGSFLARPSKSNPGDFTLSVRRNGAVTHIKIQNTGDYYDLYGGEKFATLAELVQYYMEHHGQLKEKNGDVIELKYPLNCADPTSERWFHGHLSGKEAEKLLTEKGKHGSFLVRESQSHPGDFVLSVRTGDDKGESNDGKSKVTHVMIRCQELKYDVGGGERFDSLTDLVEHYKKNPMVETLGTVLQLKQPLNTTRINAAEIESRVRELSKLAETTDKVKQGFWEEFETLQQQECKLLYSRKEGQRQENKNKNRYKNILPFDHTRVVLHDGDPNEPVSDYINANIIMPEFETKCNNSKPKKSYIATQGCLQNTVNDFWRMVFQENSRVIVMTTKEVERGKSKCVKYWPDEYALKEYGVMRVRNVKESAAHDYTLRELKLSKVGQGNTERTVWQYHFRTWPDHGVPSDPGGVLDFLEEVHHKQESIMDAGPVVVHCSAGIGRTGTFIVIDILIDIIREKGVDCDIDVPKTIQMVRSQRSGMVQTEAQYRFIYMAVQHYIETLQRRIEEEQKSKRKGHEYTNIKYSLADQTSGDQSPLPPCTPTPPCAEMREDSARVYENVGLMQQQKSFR
Procedure: HEK293, SKBR3, U2OS, MCF7 and A549 cells were grown in DMEM supplemented with 10% FBS, penicillin (50 units/mL), and streptomycin (50 μg/mL) in a 37 °C incubator containing 5% CO2. […] For western-blot analysis, protein samples were separated by SDS-PAGE, transferred to nitrocellulose membranes, and incubated overnight at 4 °C with corresponding primary antibodies diluted in 5% BSA in phosphate-buffered saline Tween (PBST). SuperSignal™ West Pico PLUS (PI34580; Thermo Scientific) was used to visualize the antibodies in the bioanalytical imaging system (Azure Biosystems c500). […] Anti-PTP1B (ab244207) antibody was purchased from Abcam. For colony formation assay, a total of approximately 200–500 cells were seeded to each well in a 12-well plate.
Supplemental Figures, Schemes, and Tables:
Figure S1. Western blots of degradation assay for PROTAC screening. (A) Degradation assay of
compo un ds i n Table 1 at 1 μM fo r 16 hours in H EK29 3 cells. (B) Degradation assay of compounds in Table
1 at 10 μM for 16 hours in HEK293 cells. (C) Degradation assay of compounds in Table 2 at 1 μM for 16

SMILES | compound converted into ring-opened products 13 [1] | IC50 (full-length SHP2 (1-528)) | SHP2 degradation (in words) (SHP2) | Degradation at 1 μM (SHP2) | Degradation at 10 μM (SHP2)
NCC1(CCCCCC(=O)NCCCCCC(=O)Nc2cccc3c2CN(C2CCC(=O)NC2=O)C3=O)CCN(c2cnc(Sc3cccc(Cl)c3Cl)c(N)n2)CC1 (stereo not shown) [compound 12, 6-(1-(6-amino-5-((2,3-dichlorophenyl)thio)pyrazin-2-yl)-4-(aminomethyl)piperidin-4-yl)-N-(6-((2-(2,6-dioxopiperidin-3-yl)-1-oxoisoindolin-4-yl)amino)-6-oxohexyl)hexanamide] | over 90% | – | – | – | –
Cc1ncsc1-c1ccc([C@H](C)NC(=O)[C@@H]2C[C@@H](O)CN2C(=O)[C@@H](NC(=O)CCOCCOCCOCCOCCNC(=O)CCCCCC2(CN)CCN(c3cnc(Sc4cccc(Cl)c4Cl)c(N)n3)CC2)C(C)(C)C)cc1 [P4, (2S,4R)-1-((S)-25-(1-(6-amino-5-((2,3-dichlorophenyl)thio)pyrazin-2-yl)-4-(aminomethyl)piperidin-4-yl)-2-(tert-butyl)-4,20-dioxo-7,10,13,16-tetraoxa-3,19-diazapentacosanoyl)-4-hydroxy-N-((S)-1-(4-(4-methylthiazol-5-yl)phenyl)ethyl)pyrrolidine-2-carboxamide] | – | 156 ± 15.8 nM | did not induce significant degradation of SHP2 | <10% | <10%
Cc1ncsc1-c1ccc([C@H](C)NC(=O)[C@@H]2C[C@@H](O)CN2C(=O)[C@@H](NC(=O)CCCCCCCNC(=O)CCCCCC2(CN)CCN(c3cnc(Sc4cccc(Cl)c4Cl)c(N)n3)CC2)C(C)(C)C)cc1 [SC7, (2S,4R)-1-((S)-2-(8-(6-(1-(6-amino-5-((2,3-dichlorophenyl)thio)pyrazin-2-yl)-4-(aminomethyl)piperidin-4-yl)hexanamido)octanamido)-3,3-dimethylbutanoyl)-4-hydroxy-N-((S)-1-(4-(4-methylthiazol-5-yl)phenyl)ethyl)pyrrolidine-2-carboxamide] | – | 124 ± 21.6 nM | negligible to modest degradation | <10% | 15%
Cc1ncsc1-c1ccc([C@H](C)NC(=O)[C@@H]2C[C@@H](O)CN2C(=O)[C@@H](NC(=O)CCCCCCCCCCCNC(=O)CCCCCC2(CN)CCN(c3cnc(Sc4cccc(Cl)c4Cl)c(N)n3)CC2)C(C)(C)C)cc1 [SC11, (2S,4R)-1-((S)-2-(12-(6-(1-(6-amino-5-((2,3-dichlorophenyl)thio)pyrazin-2-yl)-4-(aminomethyl)piperidin-4-yl)hexanamido)dodecanamido)-3,3-dimethylbutanoyl)-4-hydroxy-N-((S)-1-(4-(4-methylthiazol-5-yl)phenyl)ethyl)pyrrolidine-2-carboxamide] | – | 105 ± 15.6 nM | – | 27% | 64%
Cc1ncsc1-c1ccc([C@H](C)NC(=O)[C@@H]2C[C@@H](O)CN2C(=O)[C@@H](NC(=O)CCCCCCCCCNC(=O)CCCCCC2(CN)CCN(c3cnc(Sc4cccc(Cl)c4Cl)c(N)n3)CC2)C(C)(C)C)cc1 [SC9, (2S,4R)-1-((S)-2-(10-(6-(1-(6-amino-5-((2,3-dichlorophenyl)thio)pyrazin-2-yl)-4-(aminomethyl)piperidin-4-yl)hexanamido)decanamido)-3,3-dimethylbutanoyl)-4-hydroxy-N-((S)-1-(4-(4-methylthiazol-5-yl)phenyl)ethyl)pyrrolidine-2-carboxamide] | – | 132 ± 8.7 nM | negligible to modest degradation | – | 25%
Cc1ncsc1-c1ccc([C@H](C)NC(=O)[C@@H]2C[C@@H](O)CN2C(=O)[C@@H](NC(=O)CCOCCOCCOCCOCCOCCNC(=O)CCCCCC2(CN)CCN(c3cnc(Sc4cccc(Cl)c4Cl)c(N)n3)CC2)C(C)(C)C)cc1 [P5, (2S,4R)-1-((S)-28-(1-(6-amino-5-((2,3-dichlorophenyl)thio)pyrazin-2-yl)-4-(aminomethyl)piperidin-4-yl)-2-(tert-butyl)-4,23-dioxo-7,10,13,16,19-pentaoxa-3,22-diazaoctacosanoyl)-4-hydroxy-N-((S)-1-(4-(4-methylthiazol-5-yl)phenyl)ethyl)pyrrolidine-2-carboxamide] | – | 166 ± 11.9 nM | did not induce significant degradation of SHP2 | <10% | <10%
